Data taken from patent US8795222B2, “Device and method for treatment of surface infections with nitric oxide” (Pulmonox Technologies Corp., priority 2000, dated 2014).

What was measured:
[1] = test system: P. aeruginosa; test: gNO dose study, colony growth on agar plates; assay type: cell-based
Experimental: FIG. 7 depicts a Pseudomonas aeruginosa dosage curve for exposure to NO gas with bacteria grown on solid media. Relative percentages of growth of P. aeruginosa colony forming units (cfu) at 50, 80, 120 and 160 parts per million (ppm) of nitric oxide compared with growth of P. aeruginosa cfu in medical air (100%) are shown.
To study the effects of gaseous nitric oxide on potential pathogens, a custom gas exposure incubator was designed and validated for temperature, humidity, and gas concentrations, providing an environment that matches that of a microbiologic incubator, while enabling controlled exposure of precise concentrations of the gas. […] The gNO chamber allowed control and adjustment of following factors in all in vitro studies: gNO dose, total air flow, NO2 levels, O2 levels, CO2 levels, temperature, and humidity. For the initial pilot studies, two strains of bacterial pathogen were selected based on two proposed clinical applications of gNO for respiratory infections and topical application. P. aeruginosa is associated primarily with pulmonary disease, but may also be associated with skin infection such as in severe burns. S. aureus is associated with surface wound infections. Both of these micro-organisms were chosen for the pilot study.
The first step in the process of evaluating the direct effect of gNO on bacteria was to design a simple study to determine what dose, if any, would be an approximate lethal concentration level for microbes. Once an optimal dose was estimated, then a timing study would be conducted. For these initial studies, highly dense inoculums of P. aeruginosa and S. aureus suspensions (10^8 cfu/ml) were plated onto agar plates. These plates were then exposed to various concentrations of gNO in the exposure device in order to evaluate the effect on colony growth.

[2] = test system: non-healing venous leg ulcer; test: Human case study, non-healing venous leg ulcer, topical gNO; assay type: in vivo
From the text: This case study involved a person with a 30 year history of severe venous disease, both deep and superficial, related to deep vein thrombophlebitis. Initially, while, the patient developed bilateral non-healing venous leg ulcers that were surgically treated. The surgical sites healed but the ulcers continued to recur. Initially, the patient presented with a small ulcer located just below the medial malleolus of the left ankle.
Arrangements were made to meet at the patient's home the following day to set up the equipment and for them to have a repeat training on the use of the treatment system. Training included use of the system as well as safety information on using the gas equipment.
Nitric oxide gas (ViaNOx-H, VIASYS Healthcare, Yorba Linda, Calif., USA) was applied to the lower extremity with use of a gas-diluting delivery system (CidaNOx Delivery System) designed specifically for the study (PulmoNOx Medical Inc., Edmonton, Alberta, Canada). This CidaNOx delivery system contains an internal air pump for dilution of the gNO and a flow control circuit to dilute the 800 parts per million (ppm) in the NO source cylinder down to the therapeutic level of 200 ppm. The total flow from the system was 1.0 L/min and included one-quarter of a liter per minute (250 ml/min) flow of gNO. Several internal pressure sensors assure the dilution flow is operational and monitor the system. The flow of nitric oxide was limited to 250 ml/min by a mechanically set pressure regulator and a mechanical flowmeter that have no external controls that could be changed by the patient. The concentration of nitric oxide delivered was assured by measurement of the CidaNOx output with a calibrated nitric oxide analyzer (AeroNOx, Pulmonox Medical Inc.) that is approved for monitoring inhaled NO in human patients.
The 200 ppm gNO from the CidaNOx Delivery System flowed out to a single patient use plastic boot that covered the patient's lower extremity. […] A secondary air outlet from the CidaNOx unit managed the inflation of the cuff. The patient connected the pump outlet to the cuff connector until it was inflated and then the connector was sealed closed with the provided clamp. […]
To explore the potential for wound bed preparation and accelerated wound healing from prolonged use, treatment regimen beyond three days was chosen and which was stopped at 14 days to evaluate the short-term effects and explore the possibility that the short-term effects would improve the longer-term outcome. […] The patient recorded the date, time, and duration of each treatment period on a data sheet, and any significant observations related to the wound, treatment, or equipment. The wound size (cm^2) was measured using digital photography and densitometry technique (Scion Image −4.02, Scion Corp., Frederick Md., USA). […]

[3] = test system: Fibroblast cells; test: Fibroblast viability study in gNO chamber; assay type: cell-based, human
Experimental: Fibroblast cells obtained from adult patients undergoing elective reconstructive surgery were cultured in Dulbeco's Modified Eagle's Medium (DMEM), supplemented with 10% fetal bovine serum (FBS) and antibiotic-antimycotic preparation and divided into ten 25 cm^2 vented culture flasks (COSTAR). […] The NO exposure chamber was validated prior to the study to eliminate extraneous variables and ensure optimal conditions for fibroblast cell growth. Another four flasks (control group) were placed inside conventional culture incubator and exposed only to ambient humidified air at 37° C. Two flasks were separately harvested and counted as the number of cells at zero time. Following the treatment, fibroblast cells were harvested and evaluated for morphology, cell count, capacity to proliferate and medium pH.
Cells under gNO appeared healthy and attached to the culture plates.
Capability of cells to reattach to the culture plates within a specified time limit is commonly used as an indication of viability of cells in culture. Both the control and treated groups show a 70% attachment capacity within 1 hour of culturing.

[N]=O [gNO, nitric oxide]
colony size and number after transfer to a conventional incubator ([1]; 24 hours after gNO exposure, controls overgrew): remained the same in size and number | time required to achieve the >90% reduction of colony formation ([1]; gNO greater than 120 ppm, agar plates): 8 to 12 h | reduction of colony formation ([1]; gNO greater than 120 ppm, agar plates, compared with medical air): greater than 90% | survival ([1]; increasing gNO to 120 ppm, agar plates): 5-10% | ulcer status ([2]; 26 weeks post NO discontinuation): completely healed and reepithelialized | wound size, day 3 ([2]; 200 ppm gNO nightly, day 3, 24 hours cumulative exposure, p=0.014): Significant wound size reduction | reduction in wound area ([2]; 200 ppm gNO nightly, end of therapy at day 14): approximately 75% | wound healed ([2]; six weeks after the end of 14-day 200 ppm gNO treatment): about 90% | attachment capacity ([3]; 160 ppm gNO, within 1 hour of culturing, control the same): 70% | proliferation of fibroblast cells ([3]; 200 ppm NO, compared with control): positive effect of increasing proliferation | harmful effects on the fibroblast ([3]; around 200 ppm gNO, 24 and 48 hours): did not have harmful effects | toxic effect, morphology and attachment ([3]; gNO concentrations less than 200 ppm continuously for 48 hours): No toxic effect
